According to patent US12324814B2, “Manganese composition for enhancing immunity” (PEKING UNIVERSITY, priority 2019, dated 2025):

Columns and labels:
melanoma B16-F10 = experiment: Subcutaneous B16-F10 melanoma, manganese colloid with cyclophosphamide; format: in vivo, mice; details: 14 days after inoculation; colloid 5 mg/kg i.m. every two days; CTX 140 mg/kg i.p. day 6, 9, 12
IL-1β = experiment: Induction of inflammatory factor IL-1β by manganese products; format: cell-based; details: FIG. 2B
Description: Each of the products was tested.

[1] = tested on: mouse peritoneal macrophages; format: cell-based
[2] = tested on: inflammatory factors IL-1β and IL-18; format: cell-based, mouse
[3] = 20 μg manganese i.m. in 100 μl saline
Description: The mice were randomly divided into 2 groups according to body weight, namely: intramuscular injection of MnCl2 solution group (20 μg MnCl2 dissolved in 100 μl saline), and intramuscular injection of manganese colloid group (20 μg manganese colloid suspended in 100 μl saline). 20 μg here refers to the mass of the element manganese. At different times after the injection, 0.1 g of the muscle at the injection site was taken, digested with a microwave digestion apparatus, and then the content of the element manganese was determined by ICP-MS (Thermo X SERIES II).

influenza virus = tested on: influenza virus; set-up: species or system mice; details: mouse, in vivo
B16/OVA melanoma cells = experiment: B16/OVA melanoma subcutaneous in situ tumor model after immunization; format: in vivo, mice; details: 21 days after tumor inoculation; immunized three times with OVA ± adjuvant
Excerpt: The mice were randomly divided into 4 groups according to body weight: blank control group (con), OVA control group, OVA and manganese colloid group (OVA+Mn), and OVA and aluminum adjuvant group (OVA+Al). After immunizing the mice three times according to the experimental scheme (once every 7 days), the B16/OVA melanoma cells were subcutaneously inoculated to establish an in situ tumor model. […] 21 days after tumor inoculation, the average tumor size of mice in the control group was 1906 mm^3, the average tumor size of mice in the OVA group was 925.5 mm^3, the average tumor size of mice immunized with manganese colloid was 222.9 mm^3, and the average tumor size of mice in the aluminum adjuvant group was 1946 mm^3, as shown in FIG. 14B.

B16-OVA tumor = experiment: B16-OVA tail vein tumor metastasis model after immunization; format: in vivo, mice; details: 21 days after tumor injection
Description: Mn2OHPO4 colloid and aluminum adjuvant were mixed respectively with antigen OVA to immunize mice. Immunizations were performed 3 times with once every 7 days to activate the immune response in the body. B16-OVA tumor was injected into the tail vein to establish a tumor metastasis model. The mice were sacrificed 21 days after the tumor injection, and the lung tissues were taken out.

For O=P1(N(CCCl)CCCl)NCCCO1 (stereo not shown) [CTX, cyclophosphamide monohydrate], which tumor size (melanoma B16-F10) is on record?
The tumor size was 393.9 mm^3.

For [Cl][Mn][Cl] [MnCl2], which “ability to activate inflammatory factors, MnCl2 compared with manganese colloid” value (IL-1β) is on record?
Its value is “have the same ability to activate inflammatory factors”.

What about the “expression of type I interferon (ISG54, Viperin, total type I interferon in supernatant)” value [1] of the same molecule?
Its value is “can activate the expression of type I interferon”.

What about the “ability to activate inflammatory factors (caspase 1 and IL-1β cleavage, IL-1β and IL-18)” value [2] of the same molecule?
The value was “significantly stronger than that of aluminum adjuvant”.

And the “ability to activate inflammatory factors in NLRP3 knockout cells” value [2]?
Its value is “significantly lowered”.

And the “retention at the injection site (manganese content in muscle)” value [3]?
Its value is “quickly metabolized”.

With CTB as the molecule, how does the “inflammation in the lungs” value (influenza virus) read?
The value was “a small amount of inflammation in lung”.

And the “weight of the mice after influenza infection” value (influenza virus)?
Its value is “recovered slightly after a slight weight loss”.

B1: OVA: ovalbumin antigen (InvivoGen, #vac-pova), given without adjuvant (protein, UniProt P01012 2-386, looked up)
Ovalbumin: GSIGAASMEFCFDVFKELKVHHANENIFYCPIAIMSALAMVYLGAKDSTRTQINKVVRFDKLPGFGDSIEAQCGTSVNVHSSLRDILNQITKPNDVYSFSLASRLYAEERYPILPEYLQCVKELYRGGLEPINFQTAADQARELINSWVESQTNGIIRNVLQPSSVDSQTAMVLVNAIVFKGLWEKAFKDEDTQAMPFRVTEQESKPVQMMYQIGLFRVASMASEKMKILELPFASGTMSMLVLLPDEVSGLEQLESIINFEKLTEWTSSNVMEERKIKVYLPRMKMEEKYNLTSVLMAMGITDVFSSSANLSGISSAESLKISQAVHAAHAEINEAGREVVGSAEAGVDAASVSEEFRADHPFLFCIKHIATNAVLFFGRCVSP
With B1 as the molecule, how does the average tumor size (B16/OVA melanoma cells) read?
Its average tumor size is 925.5 mm^3.

And the “melanomas on the lungs” value (B16-OVA tumor)?
Its value is “a certain number of melanomas”.
